In patent US7476755B2, “Therapeutic compounds” (Allergan, Inc., priority 2006, dated 2009):

Tests used:
In vivo testing, dog IOP = settings: Conc. 0.1% (g/100 mL)
Description: (§1) In vivo testing done as described in U.S. patent application Ser. No. 11/009,298 gave the results in Table 2 below.

[1] = In vivo testing, dog hyperemia; settings: Conc. 0.1% (g/100 mL)
Description: as §1

[2] = In vivo testing, monkey IOP; settings: Conc. 0.1% (g/100 mL)
Description: as §1

[3] = In vivo testing, rabbit hyperemia; settings: Conc. 0.1% (g/100 mL)
Description: as §1

hEP2/Gqs5 = target: T1, hEP2/Gqs5 (Homo sapiens, UniProt P43116); test: FLIPR calcium signal, EP2; assay type: cell-based; settings: HEK-293(EBNA) cells, read-out: EP2 Ca2+ EC50
T1 construct: expressed in transfected cells
Method: HEK-293(EBNA) cells, stably expressing one type or subtype of recombinant human prostaglandin receptors (prostaglandin receptors expressed: hDP/Gqs5; hEP2; hEP2/Gqs5; hEP3A/Gqi5; hEP4/Gqs5; hFP; hIP; hTP), were cultured in 100 mm culture dishes in high-glucose DMEM medium containing 10% fetal bovine serum, 2 mM I-glutamine, 250 μg/ml geneticin (G418) and 200 μg/ml hygromycin B as selection markers, and 100 units/ml penicillin G, 100 μg/ml streptomycin and 0.25 μg/ml amphotericin B.
Cells were seeded at a density of 5×10^4 cells per well in Biocoat® Poly-D-lysine-coated black-wall, clear-bottom 96-well plates (Becton-Dickinson) and allowed to attach overnight in an incubator at 37° C. Cells were then washed two times with HBSS-HEPES buffer (Hanks Balanced Salt Solution without bicarbonate and phenol red, 20 mM HEPES, pH 7.4) using a Denley Cellwash plate washer (Labsystems). […]
Cells were excited with an Argon laser at 488 nm, and emission was measured through a 510-570 nm bandwidth emission filter (FLIPR™, Molecular Devices, Sunnyvale, Calif.). […] The peak increase in fluorescence intensity was recorded for each well. […] The peak fluorescence change in each drug-containing well was then expressed relative to the controls. […]

EP4 = target: T2, EP4 (Homo sapiens, UniProt P35408); test: Radioligand binding, EP4; settings: HEK-293 cells expressing EP4, [3H]PGE2; read-out: EP4 Ki EC50
T2 construct: expressed in transfected cells; membrane fraction
Method: HEK-293 cells stably expressing the human or feline FP receptor, or EP1, EP2, or EP4 receptors were washed with TME buffer, scraped from the bottom of the flasks, and homogenized for 30 sec using a Brinkman PT 10/35 polytron. TME buffer was added to achieve a final 40 ml volume in the centrifuge tubes (the composition of TME is 100 mM TRIS base, 20 mM MgCl2, […]; 10N HCl is added to achieve a pH of 7.4).
The cell homogenate was centrifuged at 19000 r.p.m. for 20 min at 4° C. using a Beckman Ti-60 rotor. The resultant pellet was resuspended in TME buffer to give a final 1 mg/ml protein concentration, as determined by Biorad assay. Radioligand binding competition assays vs. [^3H-]17-phenyl PGF2n (5 nM) were performed in a 100 μl volume for 60 min. Binding reactions were started by adding plasma membrane fraction. The reaction was terminated by the addition of 4 ml ice-cold TRIS-HCl buffer and rapid filtration through glass fiber GF/B filters using a Brandel cell harvester. The filters were washed 3 times with ice-cold buffer and oven dried for one hour.
[^3H-] PGE2 (specific activity 180 Ci mmol) was used as the radioligand for EP receptors. [^3H] 17-phenyl PGF2α was employed for FP receptor binding studies. […] 17-phenyl PGF2α and non-specific binding determined with 10^−5M of unlabeled PGE2, or 17-phenyl PGF2α, according to receptor subtype studied.

EP2 [4] = target: T3, EP2 (Homo sapiens, UniProt P43116); test: Competition binding, human EP2 receptors ([3H]PGE2); set-up: expressed in transfected cells; settings: HEK 293 cells stably expressing human EP2, [3H]PGE2
Method: Competition binding experiments were performed in a medium containing Hank's balanced salt solution, Hepes 20 mM, pH 7.3, membranes (˜60 μg protein) or 2×10^5 cells from HEK 293 cells stably expressing human EP2 receptors, [^3H]PGE2 (10 nM) and various concentrations of test compounds in a total volume of 300 μl. Reaction mixtures were incubated at 23° C. for 60 min, and were filtered over Whatman GF/B filters under vacuum. Filters were washed three times with 5 ml ice-cold buffer containing 50 mM Tris/HCl (pH 7.3). Non-specific binding was estimated in the presence of excess unlabeled PGE2 (10 μM). Binding data fitted to the binding model for a single class of binding sites, using nonlinear regression analysis. IC50 values thus obtained were converted to Ki using the equation of Ki=(IC50/(1+[L]/KD) where [L] represents PGE2 concentration (10 nM) and KD the dissociation constant for [^3H]PGE2 at human EP2 receptors (40 nM). […]
The cell homogenate was centrifuged at 19000 r.p.m. for 20 min at 4° C. using a Beckman Ti-60 rotor. The resultant pellet was resuspended in TME buffer to give a final 1 mg/ml protein concentration, as determined by Biorad assay. […]
[^3H-] […] 17-phenyl PGF2α and non-specific binding determined with 10^−5M of unlabeled PGE2, or 17-phenyl PGF2α, according to receptor subtype studied.

EP2 [5] = target: T3, EP2; test: cAMP assay, EP2; assay type: cell-based; set-up: expressed in transfected cells; host or cells: HEK-EBNA cells; settings: HEK-EBNA cells expressing EP2
Method: A 384-well drug plate was prepared to contain 6 test compounds, PGE2 and cAMP in 16 serial dilutions in triplicate, using a Biomek station. HEK-EBNA cells expressing a target PG receptor subtype (EP2 or EP4) were suspended in a stimulation buffer (HBSS, 0.1% BSA, 0.5 mM IBMX and 5 mM HEPES, pH 7.4) in a density of 10^4 cells/5 μl. The reaction was initiated by mixing […] drug dilutions with 5 μl of HEK-EBNA cells in a well, carried out for 30 min at room temperature, and followed by the addition of 5 μl anti-cAMP acceptor beads in the control buffer with Tween-20 (25 mM NaCl, 0.03% Tween-20, 5 mM HEPES, pH7.4). After 30 min in the dark at room temperature, the mixtures were incubated with 15 μl biotinylated-cAMP/strepavidin donor beads in Lysis/Detection buffer (0.1% BSA, 0.3% Tween-20 and 5 mM HEPES, pH7.4) for 45 min at the room temperature. Fluorescence changes were read using a Fusion-alpha HT microplate reader.

T3 sequence (P43116 whole entry): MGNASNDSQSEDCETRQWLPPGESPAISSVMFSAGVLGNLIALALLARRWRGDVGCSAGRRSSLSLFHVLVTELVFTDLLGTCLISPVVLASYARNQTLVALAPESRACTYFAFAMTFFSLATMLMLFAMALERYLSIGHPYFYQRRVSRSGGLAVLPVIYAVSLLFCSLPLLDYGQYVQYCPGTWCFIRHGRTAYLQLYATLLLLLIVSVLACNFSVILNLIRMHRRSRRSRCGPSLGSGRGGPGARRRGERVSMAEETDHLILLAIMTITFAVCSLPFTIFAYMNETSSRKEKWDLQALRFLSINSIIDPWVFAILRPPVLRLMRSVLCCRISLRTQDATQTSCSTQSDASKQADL
T2 sequence (P35408 whole entry): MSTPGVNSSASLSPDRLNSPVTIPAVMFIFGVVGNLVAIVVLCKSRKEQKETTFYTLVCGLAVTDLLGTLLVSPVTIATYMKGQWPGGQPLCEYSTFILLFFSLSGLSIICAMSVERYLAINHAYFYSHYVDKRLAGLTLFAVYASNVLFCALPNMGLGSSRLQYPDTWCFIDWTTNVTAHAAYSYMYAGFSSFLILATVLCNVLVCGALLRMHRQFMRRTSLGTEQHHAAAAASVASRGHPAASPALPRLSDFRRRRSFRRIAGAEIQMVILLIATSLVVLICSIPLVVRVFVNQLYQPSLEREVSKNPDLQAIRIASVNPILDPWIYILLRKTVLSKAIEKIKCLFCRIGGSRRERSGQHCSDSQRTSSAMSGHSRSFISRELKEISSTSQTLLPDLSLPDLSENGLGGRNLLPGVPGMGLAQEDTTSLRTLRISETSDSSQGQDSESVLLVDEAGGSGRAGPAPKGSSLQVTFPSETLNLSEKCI
T1 sequence (P43116 whole entry): as the sequence (P43116 whole entry) above

Row | DOG Max. hyperemia [1] | RABBIT Max. hyperemia [3] | EC50 (hEP2/Gqs5) [nM] | Ki (EP4) [nM] | Ki (EP2 [4]) [nM] | EC50 (EP2 [5]) [nM] | SMILES | DOG Max. IOP (%) (In vivo testing, dog IOP) | MONKEY Max. IOP (%) [2] [%]
1 | 2.0 | – | – | – | – | – | CCCCCC(=O)c1ccc([C@@H]2[C@@H](C/C=C\CCCC(=O)O)[C@H](Cl)C[C@H]2O)cc1 [Entry 1] | −50 | 31
2 | 0.8 | 0 | – | – | – | – | CCCCCC(=O)c1ccc([C@@H]2[C@@H](C/C=C\CCCC(=O)OC(C)C)[C@H](Cl)C[C@H]2O)cc1 [Entry 2] | −37 | 20
3 | – | – | 31 | 2810 | 111 | 9 | CCCCCC(=O)c1ccc([C@@H]2[C@@H](C/C=C\CCCC(=O)O)[C@H](Cl)C[C@H]2O)cc1 [drawing 41] | – | –
